The test system of test [1] is healthy, elderly subjects. Description: Study K.241.5013: colonic transit time, elderly, 4 mg TID. The format is in vivo, human. To be noted: 4 mg TID oral 14 days, mean (SD). From the text: The effect of cilansetron on gastric emptying time and colonic transit time has been studied in 1 clinical study in healthy young subjects and 2 studies in elderly subjects. For measurement of gastric emptying time, breath samples for the determination of the ^12C/^13C ratio were taken on the last day of each treatment period immediately after ingestion of a ^13C labeled meal. The patients' breath was collected in separate 15-minute intervals, for four hours in total. ^13CO2 measurements were performed with an isotope ratio mass spectrometer. The half-life (TK) and lag-time (Tlag), which describe the duration of gastric emptying, were used as the primary parameters to evaluate gastric emptying time. In all 3 studies, colonic transit time was measured by administration of radio-opaque markers for the last six days of each treatment period, followed by a single abdominal X-ray image at 24 hours after ingestion of the last set of markers. The numbers of markers within the colon were used to calculate segmental (right colon, left colon, and rectosigmoid) and total colonic transit time.
Studies K.241.5013 and K.241.5014 were randomized, double-blind, placebo-controlled, 2-way crossover studies in 8 healthy male and female elderly subjects, each (ITT population, aged 64-83 years in K.241.5013 and 66-84 years in K.241.5014). Elderly subjects were selected for these studies because they commonly suffer from constipation and it was of interest whether cilansetron would prolong gastrointestinal transit times in this population. Subjects received cilansetron 4 mg or placebo in Study K.241.5013 and cilansetron 8 mg or placebo in Study K.241.5014. Treatments were administered orally TID for 14 days during each period, with a 14-day washout between periods. The primary efficacy parameter was the total mean colonic transit time during each treatment and the secondary parameters were the segmental colonic transit times and the gastric emptying measurements. One-sided t-tests were used to compare efficacy parameters between the cilansetron and placebo treatments.

Test [2] deals with healthy subjects. Description: Study S.241.2.104: gastric visceral perception (barostat). Type of test: in vivo, human. On the procedure:
The effect of cilansetron on gastric perception was evaluated in a randomized, double-blind, placebo-controlled, parallel-group study in 44 male and female healthy subjects (ITT population; 22 subjects received placebo and 22 received 8 mg cilansetron), aged 19-43 years. Subjects received cilansetron 8 mg TID orally for 7 days and gastric distension tests were done at baseline (Day 1, prior to dosing) and poststudy (Day 8). An electronic barostat was used to produce isobarometric distensions (starting from 2 mmHg, progressive distensions in 2 mmHg increments were performed every 2 minutes until gastric pain occurred or an upper limit of 20 rnrnHg was reached) and isovolumetric distensions (starting from an initial volume of 200 mL, progressive distensions in 100 mL increments were performed every 2 minutes until gastric pain occurred or an upper limit of 1100 mL was reached). The primary efficacy parameter was the difference in pain threshold from baseline to poststudy, measured by the amount of distension pressure inducing gastric pain. Secondary parameters were the mean distension pressure/volume inducing the first feelings of gastric sensation and gastric discomfort, and changes in bowel habits over the treatment period. A 2-sample t-test was used to compare baseline-adjusted pain threshold and other secondary efficacy parameters between cilansetron and placebo treatments.

Where [3] appears, read: 8 mg TID oral 7 days, Day 8, arith. mean.
Setting [4] is: 8 mg TID oral 7 days, arith. mean.
The mark [5] stands for this setting: 8 mg TID oral 7 days, baseline-adjusted, 2-sample t-test, significant (p < 0.01).

Consider `Cc1nccn1C[C@H]1CCc2c(c3cccc4c3n2CCC4)C1=O` [Cilansetron, (R)-(−)-4,5,6,8,9,10-hexahydro-10-[(2-methyl-1H-imidazol-1-yl)methyl]-11H-pyrido-[3,2,1-jk]-carbazol-11-one], for which, in test [1], the “Transit Times, Colon Total” value is listed as 55.5 (41.3) hours; the “Transit Times, Colonic Segments Left” value is recorded as 21.9 (16.0) hours; the “Transit Times, Colonic Segments Rectosigmoid” value was 6.3 (8.3) hours; the “Transit Times, Colonic Segments Right” value is listed as 27.3 (29.2) hours. For the same compound, the “Mean gastric pain threshold raised vs baseline” value in test [2] (8 mg TID 7 days) amounted to 1.9 mmHg. Moreover, in test [2] (setting [3]), the “Pressure first producing gastric discomfort, Poststudy” value turned out to be 11.9 mmHg; the “Pressure first producing gastric pain, Poststudy” value turned out to be 15.4 mmHg; the “Pressure first producing gastric sensation, Poststudy” value is listed as 8.9 mmHg; the “Volume first producing gastric pain, Poststudy” value was 764 mL. In test [2] (setting [4]), the “Pressure first producing gastric discomfort, Change from Baseline” value amounted to 0.9 mmHg; the “Pressure first producing gastric pain, Change from Baseline” value stood at 1.9 mmHg; the “Pressure first producing gastric sensation, Change from Baseline” value was 0.9 mmHg; the “Volume first producing gastric pain, Change from Baseline” value came out at 77 mL. The “Volume first producing gastric pain, Difference cilansetron versus placebo” value in test [2] (8 mg TID oral 7 days, baseline-adjusted, 2-sample t-test) is -18 mL. In test [2] (setting [5]), the “Pressure first producing gastric discomfort, Difference cilansetron versus placebo” value turned out to be 2.2 mmHg; the “Pressure first producing gastric pain, Difference cilansetron versus placebo” value is 2.8 mmHg; the “Pressure first producing gastric sensation, Difference cilansetron versus placebo” value turned out to be 2.1 mmHg. Also, in test [2] (in vivo), the “Gastric discomfort threshold raised” value is reported as 0.9 mmHg, the “Gastric pain threshold mean increase vs placebo” value stood at 2.8 mmHg, the “Gastric sensation threshold raised” value came to 0.9 mmHg and the “Mean volume to reach gastric pain threshold raised” value is recorded as 77.3 mL. For the same compound, in test [2] (vs placebo), the “Gastric discomfort threshold treatment increase” value came to 2.2 mmHg, the “Gastric sensation threshold treatment increase” value stood at 2.1 mmHg and the “Volume difference between treatments” value was -18.0 mL.

These data come from patent US20090176817A1, “Method of Treatment of Diarrhea-Predominant Irritable Bowel Syndrome in a Subject” (priority 2005, published 2009).
